Laboratory results from article PMC10674565 (Pharmaceuticals, 2023).

Experiments:
SLCO1B1 = experiment: Effect on expression of SLCO1B1 in HepG2 cells (Western blot); type: cell-based, human; conditions: 1, 10, and 100 µM, 24 h incubation
Procedure: The HepG2 cell line was purchased from American Type Culture Collection (Institute of Cytology, Russian Academy of Sciences, Moscow, Russia). Cells were cultured in Dulbecco’s modified Eagle’s medium containing 15% fetal bovine serum, 2 mM l-glutamine, 100 units/mL penicillin G, and 100 μg/mL streptomycin in an atmosphere of 5% CO2 at 37 °C on a 24-well plate until a monolayer was formed. HepG2 cells were used to test the effect of EMHPS on the expression of SLCO1B1.
(§1) To test the effect of EMHPS on the expression of ABCB1 and SLCO1B1, Caco-2 or HepG2 cells, respectively, were cultured on a 6-well plate. EMHPS was used at concentrations of 1, 10, and 100 µM, and the duration of exposure was 24 h. After the incubation, the cells were removed from the surface of the wells with a trypsin–EDTA solution (0.25% trypsin and 0.2% EDTA, Sigma-Aldrich, St. Louis, MO, USA).
(§2) The expression levels of ABCB1 and SLCO1B1 were analyzed via Western blot.
(§3) Cells were lysed with NP40 Cell Lysis Buffer Thermo (Thermo Fisher Scientific) with protease inhibitors (Sigma Aldrich, St. Louis, MO, USA) for 30 min at +4 °C with constant stirring at a rate of 10^7 cells per 100 µL of buffer. Protein concentrations were quantified with the Pierce Coomassie Plus Assay Kit (Thermo Fisher, Rockford, IL, USA). […]

[1] = system: hemispheric ischemic stroke; parameters: method as in doi:10.1007/s11055-018-0652-y; conditions: 151 patients with hemispheric ischemic stroke; cited from earlier work
chronic brain ischemia = system: chronic brain ischemia; parameters: method as in PMID 34932280; conditions: 318 patients with chronic brain ischemia; cited from earlier work
ABCB1 [2] = molecular target: ABCB1 (Homo sapiens, UniProt P08183); experiment: EMHPS transport through the Caco-2 cells monolayer (ABCB1 substrate test); type: in vitro ADME; parameters: Caco-2 cells were used to test the effect of EMHPS on the expression and activity of ABCB1; endogenous in cells; host or cells: Caco-2
Sequence of ABCB1 (Homo sapiens, UniProt P08183) (P08183 whole entry): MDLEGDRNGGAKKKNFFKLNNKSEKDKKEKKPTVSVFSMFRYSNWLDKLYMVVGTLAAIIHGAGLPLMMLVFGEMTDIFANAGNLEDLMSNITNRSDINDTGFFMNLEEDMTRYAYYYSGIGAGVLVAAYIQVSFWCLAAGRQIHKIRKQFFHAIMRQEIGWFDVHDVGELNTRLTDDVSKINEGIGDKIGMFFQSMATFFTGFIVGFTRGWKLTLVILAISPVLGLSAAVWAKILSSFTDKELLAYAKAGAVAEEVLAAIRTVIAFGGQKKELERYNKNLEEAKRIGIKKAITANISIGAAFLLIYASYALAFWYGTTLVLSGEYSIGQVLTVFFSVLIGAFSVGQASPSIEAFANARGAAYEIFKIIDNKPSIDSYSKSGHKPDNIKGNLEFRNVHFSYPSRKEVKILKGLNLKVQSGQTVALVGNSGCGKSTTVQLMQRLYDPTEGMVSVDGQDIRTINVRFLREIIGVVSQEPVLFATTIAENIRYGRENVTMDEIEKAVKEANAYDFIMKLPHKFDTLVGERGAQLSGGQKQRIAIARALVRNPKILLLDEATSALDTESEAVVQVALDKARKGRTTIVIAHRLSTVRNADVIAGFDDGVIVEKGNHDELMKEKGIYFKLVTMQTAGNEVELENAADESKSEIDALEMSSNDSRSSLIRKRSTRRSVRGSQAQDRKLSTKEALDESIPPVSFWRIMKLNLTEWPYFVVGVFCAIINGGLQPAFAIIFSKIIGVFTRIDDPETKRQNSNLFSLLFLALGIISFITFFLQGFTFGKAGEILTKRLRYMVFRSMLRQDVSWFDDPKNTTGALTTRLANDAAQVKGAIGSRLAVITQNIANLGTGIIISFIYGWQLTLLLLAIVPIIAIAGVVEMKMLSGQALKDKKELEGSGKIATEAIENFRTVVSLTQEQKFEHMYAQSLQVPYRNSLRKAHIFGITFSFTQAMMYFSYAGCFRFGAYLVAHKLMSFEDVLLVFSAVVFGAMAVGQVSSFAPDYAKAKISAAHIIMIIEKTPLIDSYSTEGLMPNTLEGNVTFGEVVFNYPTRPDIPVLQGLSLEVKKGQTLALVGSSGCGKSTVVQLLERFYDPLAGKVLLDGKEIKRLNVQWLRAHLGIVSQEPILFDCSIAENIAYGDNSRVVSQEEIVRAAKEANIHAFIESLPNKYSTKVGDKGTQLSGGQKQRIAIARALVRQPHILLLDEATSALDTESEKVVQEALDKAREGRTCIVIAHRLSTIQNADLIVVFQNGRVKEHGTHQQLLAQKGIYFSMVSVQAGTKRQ
Procedure: The medium was changed every 2–3 days.
The medium in chambers was removed and the cell monolayers were washed twice in warm (37 °C) transport medium (Hanks‚ balanced salt solution containing 10 mM HEPES and 1% dimethylsulfoxide (DMSO)). […] Chamber–recipient was filled with transport medium without EMHPS. At 60, 120, and 180 min, 100 μL samples were taken from the recipient chamber and the drug concentration was analyzed. EMHPS transport was assessed in the absorptive (apical to basolateral, a-b) and secretory (b-a) directions.
The apparent permeability (Papp) of EMHPS through Caco-2 monolayers was calculated using Equation (1). (1) Papp=dQ/dt×1/A×C0
A, membrane surface area (1.12 cm^2); C0, EMHPS concentration at t = 0 µM; and dQ/dt, amount of EMHPS transported within a given time period µM/s.
The ratio of Papp (b-a) and Papp (a-b), known as the efflux ratio (ER), was calculated in accordance with the following Equation (2):(2) ER=Papp b-a/Papp a-b
The ER was used as a marker for permeability through Caco-2 cell monolayers.
EMHPS concentrations in the transport medium (transport experiments with Caco-2 cells) were analyzed using HPLC-UV (HPLC chromatograph Stayer) with UV detection at a wavelength of 296 nm. The sample (50 µL) was diluted in 150 µL of the mobile phase, and 100 µL of the resulting solution was injected into the chromatograph. In the analysis, a Beckman Coulter 4.6 × 150 mm, 5 μm chromatographic column was used.
The separation temperature was 35 °C. The flow rate was 0.8 mL/min. Mobile phase composition: acetonitrile and water in a 20:80 v/v ratio with the addition of acetic acid to pH 3.25. The retention time of EMHPS under these conditions was 5.5 min.

[3] = parameters: method as in earlier work; conditions: blood plasma; cited from earlier work
ABCB1 [4] = experiment: Effect on expression of ABCB1 in Caco-2 cells (Western blot); type: cell-based, human; conditions: 1, 10, and 100 µM, 24 h incubation
Procedure: as §1, §2, §3
The protein content was measured relative to the level of housekeeping protein GAPDH (primary antibodies: GAPDH Loading Control Monoclonal Antibody (GA1R) and […] (Invitrogen); secondary antibodies: secondary rabbit antibodies to primary GAPDH antibodies—Rabbit-anti-Mouse IgG (H + L) Secondary Antibody and HRP (Invitrogen). Chemiluminescence was recorded using ChemiDocXRS+ (Bio-Rad). The intensity of the obtained bands was analyzed densitometrically using ImageLab 6.0.0 software (Bio-Rad).

[5] = human, EMHPS 10 µM, Caco-2 monolayer, M ± SD
[6] = human, EMHPS 100 µM, Caco-2 monolayer, M ± SD
[7] = human, EMHPS 250 µM, Caco-2 monolayer, M ± SD

In the case of `CCc1nc(C)ccc1O.O=C(O)CCC(=O)O` [EMHPS, 2-Ethyl-6-methyl-3-hydroxypyridine succinate], the “effect on expression of SLCO1B1” value (SLCO1B1) is listed as “did not significantly affect”, the “neurological status compared with the placebo” value [1] is listed as “improved the neurological status” and the “benefit over the placebo in basic neurological tests” value (chronic brain ischemia) is listed as “statistically significant benefit”. For the same compound, the “substrate of ABCB1” value (ABCB1 [2]; Caco-2 monolayer, 10, 100, and 250 µM) was “not a substrate of ABCB1”, the Papp A→B at 180 min, 10 µM (ABCB1 [2]; [5]) was 7.66 ×10⁻⁶ cm/s and the Papp B→A at 180 min, 10 µM (ABCB1 [2]; [5]) was 7.56 ×10⁻⁶ cm/s. It also gave an efflux ratio at 180 min, 10 µM (ABCB1 [2]; human, EMHPS 10 µM, Caco-2 monolayer, M ± SD, read-out: ER (Papp b-a/Papp a-b)) of 0.99 ± 0.323, a Papp A→B at 180 min, 100 µM (ABCB1 [2]; [6]) of 7.05 ×10⁻⁶ cm/s and a Papp B→A at 180 min, 100 µM (ABCB1 [2]; [6]) of 6.63 ×10⁻⁶ cm/s. The efflux ratio at 180 min, 100 µM (ABCB1 [2]; human, EMHPS 100 µM, Caco-2 monolayer, M ± SD, read-out: ER (Papp b-a/Papp a-b)) was 0.94 ± 0.039, the Papp A→B at 180 min, 250 µM (ABCB1 [2]; [7]) was 22.3 ×10⁻⁶ cm/s and the Papp B→A at 180 min, 250 µM (ABCB1 [2]; [7]) was 16.5 ×10⁻⁶ cm/s. For the same compound, the efflux ratio at 180 min, 250 µM (ABCB1 [2]; human, EMHPS 250 µM, Caco-2 monolayer, M ± SD, read-out: ER (Papp b-a/Papp a-b)) was 0.75 ± 0.26, the efflux ratio at 180 min (ABCB1 [2]; human, all concentrations (10, 100, and 250 µM), Caco-2 monolayer, read-out: ER (Papp b-a/Papp a-b)) was ~1 and the Cmax [3] was 390 nM. The “effect on expression of ABCB1” value (ABCB1 [4]) was “did not significantly affect”.
